According to paper PMC11121470, “Leveraging the Fragment Molecular Orbital and MM-GBSA Methods in Virtual Screening for the Discovery of Novel Non-Covalent Inhibitors Targeting the TEAD Lipid Binding Pocket” (International Journal of Molecular Sciences, 2024):
“Also recorded” adds a separate entry of the source. Where two headings read alike, the source gives them in different places. Blank lines part the entries; values can stand above or below the compound they belong to.

Tests used:
[1] = test system: TEAD; test: TEAD luciferase reporter assay in MCF7 cells; assay type: cell-based; details: for IC50: Homo sapiens
Procedure: (§1) Stable cell lines, namely MCF7 cell TEAD luciferase cells, were maintained in Dulbecco’s modified Eagle medium (DMEM) containing 10% fetal bovine serum, penicillin, and streptomycin, at 37 °C, in a humidified incubator containing 5% CO2. To construct an MCF7-TEAD luciferase stable cell line, MCF7 cells were infected with a TEAD luciferase reporter lentivirus using polybrene (Millipore, Burlington, MA, USA) and then selected with puromycin. The stable cell lines NCI-[…] and NCI-H28 were maintained in Roswell Park Memorial Institute (RPMI) medium.
TEAD luciferase reporter MCF7 cells were seeded into 96-well white plates (3 × 10^4 cells per well). The medium was replaced with DMEM without fetal bovine serum (FBS; 100 μL per well), and the cells were treated with various concentrations of compounds (0.001–10 μmol/L) for 24 h. Fifty microliters of the medium containing compounds was removed from each well, following which 50 μL of FBS in 10% DMEM was added to the cells and incubated for 6 h. Luciferase activity was measured using the One-Glo® Luciferase Assay Kit from Promega (Madison, WI, USA). A small portion of the medium was removed (60 μL) from each well, and 40 μL of One-Glo® Luciferase assay buffer containing reagent was added in its place. Luminescence was measured using a VICTOR® Nivo™ multimode microplate reader (PerkinElmer, Waltham, MA, USA) and normalized to the results of the vehicle.

[2] = test system: H28 cancer cell line; test: Cell viability assay (CellTiter-Glo 2.0), H28; assay type: cell-based; details: for IC50: Homo sapiens, NCI-H28, H28 cells, 144 h, n = 3
Procedure: as §1
(§2) Cells were seeded into 96-well plates (1 × 10^3 cells per well) and changed to RPMI with 1% FBS, and then treated with various concentrations (0.0001–10 μmol/L) of compounds (MGH-CP1, BC-010, BC-011, and BC-013) for 144 h. The medium was replaced with 1% FBS + RPMI containing compounds every 3 d. Cell viability was measured using the CellTiter-Glo® 2.0 Cell Viability Assay Kit from Promega. Before the viability was measured, the drug treatment medium was removed and replaced with 50 μL of FBS-free RPMI and 50 μL of CellTiter-Glo® 2.0 reagent. The cells with medium replacement were incubated for 1 h at room temperature, to prevent exposure to light. Luminescence was measured using a VICTOR® Nivo™ multimode microplate reader (PerkinElmer) and normalized to the results of the vehicle.

[3] = test system: H226 cancer cell; test: Cell viability assay (CellTiter-Glo 2.0), H226; assay type: cell-based; details: Homo sapiens, NCI-H226, 144 h, H226 cells, n = 3
Procedure: as §1, §2

[4] = test system: TEAD target genes Ctgf and Cyr61; test: mRNA expression of TEAD target genes by qRT-PCR in H226 cells; assay type: cell-based; details: 24 h, 1, 5 and 10 μM, n = 3
Procedure: H226 cells were seeded at a density of 1 × 10^5 cells/well into a 12-well plate. After treatment with various concentrations (1, 5, and 10 μM) of the compounds, the cells were incubated at 37 °C for 24 h. RNA extraction was performed using the RNeasy Plus Mini Kit (QIAGEN, Hilden, Germany), as per the manufacturer’s protocol. Extracted RNA was quantified using a NanoDrop™ One Microvolume UV–Vis Spectrophotometer (Thermo Fisher, Waltham, MA, USA). cDNA was synthesized using 1000 ng of quantified RNA and an iScript™ cDNA Synthesis Kit (Bio-Rad, Hercules, CA, USA). qRT-PCR was carried out using PowerUp™ SYBR™ Green Master Mix (Thermo Fisher) and primers (hCTGF-F: CCAATGACAACGCCTCCTG, hCTGF-R: TGGTGCAGCCAGAAAGCTC, hCYR61-F: […], hCYR61-R: […], hβ-actin-F: […], hβ-actin-R: […]), with the results normalized to those of the vehicle.

[5] = target: TEAD2; parameters: method as in PMID 26592798; details: reference compounds of Figure 1; cited from earlier work
[6] = test system: TEAD; details: cited from earlier work
[7] = test system: TEAD; details: cited from earlier work; remark: listed apart in the source
[8] = 1 nM to 10 μM, n = 2, read-out: IC50, TEAD reporter luciferase assay
[9] = reference compounds of Figure 1
[10] = reference compounds of Figure 1 and FMO section
[11] = Vivace compounds, ref 45 (WO202097389A1)

- IC50 [1, 8]: 3680 nM
- IC50 ([1]; read-out: IC50, reporter assay): 3700 nM
Compound: COc1ccc(C(=O)NN)cc1COc1ccc(Cl)c(C)c1 [BC-001]

- IC50 [1, 8]: 2890 nM
Compound: COc1ccc(C(=O)NN)cc1COc1ccc(Br)cc1 [BC-002]
- TEAD reporter luciferase activity (in words) [1]: retained the same activity as BC-001

- IC50 [1, 8]: 3990 nM
Compound: COc1ccc(C(=O)NN)cc1COc1ccc(Cl)cc1 [BC-003]
- TEAD reporter luciferase activity (in words) [1]: retained the same activity as BC-001

- IC50 ([1]; 1 nM to 10 μM, n = 2, printed in figure as 10uM<, read-out: IC50, TEAD reporter luciferase assay): > 10000 nM
Compound: COc1ccc(C=C(C#N)C#N)cc1COc1cc(C)c(Cl)c(C)c1 [BC-004]
- TEAD reporter luciferase activity (in words) [1]: did not exhibit any activity

Compound: NNC(=O)c1cccc(COc2ccc(Cl)cc2)c1 [BC-005]
- TEAD reporter luciferase activity (in words) [1]: increased

- IC50 [1, 8]: 1520 nM
Compound: COc1ccc(C(=O)NN)cc1COc1ccccc1 [BC-006]

- IC50 [1, 8]: 5610 nM
Compound: COc1ccc(C(N)=O)cc1COc1ccccc1 [BC-007]

- IC50 [1, 8]: > 10000 nM
Compound: COc1ccc(C(=O)O)cc1COc1ccccc1 [BC-008]

- IC50 [1, 8]: 2610 nM
Compound: COC(=O)c1ccc(OC)c(COc2ccccc2)c1 [BC-009]

- IC50 [2]: 9100 nM
- IC50 [1, 8]: 768 nM
- IC50 [3]: 930 nM
Compound: COc1ccc(C(=O)NN)cc1COc1ccc(C(F)(F)F)cc1 [BC-010]

- IC50 [2]: > 10000 nM
- IC50 [1, 8]: 72.4 nM
- IC50 [3]: 488 nM
Compound: COc1ccc(C(N)=O)cc1COc1ccc(C(F)(F)F)cc1 [BC-011]
- Effect on viability (in words) ([2]; H28 cancer cell line): did not show any inhibitory effects
- Ctgf mRNA expression [4]: significantly downregulated; also recorded: decreased
- Cyr61 mRNA expression [4]: significantly downregulated; also recorded: decreased

- IC50 [1, 8]: 8900 nM
Compound: COc1ccc(C(=O)O)cc1COc1ccc(C(F)(F)F)cc1 [BC-012]

- IC50 [2]: 9320 nM
- IC50 [1, 8]: 417 nM
- IC50 [3]: 2250 nM
Compound: COC(=O)c1ccc(OC)c(COc2ccc(C(F)(F)F)cc2)c1 [BC-013]

Compound: O=C(O)c1ccccc1Nc1cccc(Br)c1 [Bromofenamic acid, bromofenamic acid]
- Kd [5]: 234000 nM

Compound: COc1c(C)cc(N2C[C@@H](O)[C@@H](O)C2=O)cc1/C=C/c1ccc(Cl)cc1 [Compound 1 (Genentech)]
- IC50 [6, 9]: 2800 nM

Compound: COc1ncc(NS(C)(=O)=O)cc1/C=C/C1CCC(F)(F)CC1 [Compound 2]
- IC50 [6, 10]: 263 nM

Compound: C[C@@H](CN(C)C)NC(=O)c1ccc2c(-c3ccc(C(F)(F)F)cc3)cccc2c1 [EX64]
- IC50 [7, 11]: 1000 to 3000 nM

Compound: O=C(O)c1ccccc1Nc1cccc(C(F)(F)F)c1 [Flufenamic acid, flufenamic acid]
- Kd [5]: 73000 nM

Compound: O=C(O)c1cnc2c(cnn2C2CCCC2)c1 [Fragment 1(Merck)]
- IC50 [6, 9]: 16000 nM

Compound: C=CC(=O)Nc1ccc(C)c(Oc2ccc(Cl)cc2)c1 [K–975]
- IC50 [6, 10]: < 100 nM

- IC50 [2]: 1720 nM
- IC50 [1, 8]: 219 nM
- IC50 [3]: 1190 nM
Compound: O=C(CSc1nnc[nH]1)Nc1ccc(C23CC4CC(CC(C4)C2)C3)cc1 [MGH-CP1, reference compound]
- IC50 [6, 10]: 1920 nM

Compound: Cn1cc2c3cc(C(=O)O)ccc3n(-c3ccc(C(F)(F)F)cc3)c2n1 [MSC-4106]
- IC50 [6, 10]: 4 nM

Compound: C=CC(=O)N1C[C@@H](n2cc(-c3cccnc3)nn2)[C@H](OCc2ccc(C(F)(F)F)cc2)C1 [MYF–03–69]
- IC50 [6, 10]: 385 nM

Compound: Cn1cc2c3cc(C(=O)O)ccc3n(-c3ccc(F)cc3)c2n1 [Merck_20]
- IC50 ([7]; Merck compounds, ref 40 (WO2021224291A1)): 1900 nM

Compound: O=C(CCl)c1ccccc1Nc1cccc(C(F)(F)F)c1 [TED–347]
- EC50 ([6]; reference compound of Figure 1): 5900 ± 400 nM

Compound: O=C(Nc1ccccc1)N1CCN(C(=O)c2cccc(OCCC3CCCCC3)c2)CC1 [TM2]
- IC50 [6, 9]: 152 nM

Compound: C[C@H](NC(=O)c1ccc2c(-c3ccc(C(F)(F)F)cc3)cccc2c1)c1ccccn1 [VT-104]
- IC50 [7, 11]: 10 nM

Compound: CC(NC(=O)c1cnc2c(-c3ccc(C(F)(F)F)cc3)cccc2c1)c1ccccn1 (centres unmarked) [VT-105]
- IC50 [6, 10]: 10.4 nM
